1 compound from patent US10238623B2, “C14-hydroxyl esterified amino acid derivative of triptolide, and preparation method and use thereof” (HANGZHOU WEBEN PHARMACEUTICALS INC, priority 2015, dated 2019) can be followed below.

What is called IC50 is the concentration that gives 50% inhibition.

For one assay, the system named is CEM. In words: MTT growth inhibition, CEM cells, 72 h. It counts as cell-based, human. Here is the method:
(§1) 5000 well-grown leukemia cells or normal human blood cells were taken and seeded into wells of a 96-well cell culture plate. The medium was 1640 cell medium containing 10% fetal bovine serum. 14-D-Valine-TPL with different concentrations was added, and after being uniformly mixed, the plate was placed in a carbon dioxide (5% CO2) cell incubator, and incubated at 37° C. for 72 hours. The concentration of live cells was then determined using the MTT assay. In this experiment, the cell viability in the control group (without the compound treatment) was set to be 100%, and the cell viability (%) after the action of the compound the half maximal growth inhibitory concentration of leukemia cells at 72 hours (IC50 value at 72 hours) and the therapeutic window index were calculated. Therapeutic window index=IC50 value of normal blood cells/IC50 value of leukemia cells. […] A larger therapeutic window indicates a better selectivity of the compound for tumor cells.
(§2) 5000 well-grown leukemia cells were taken and seeded into wells of a 96-well cell culture plate. The medium was 1640 cell medium containing 10% fetal bovine serum. 14-D-Valine-TPL with different concentrations was added, and after being uniformly mixed, the plate was placed in a carbon dioxide (5% CO2) cell incubator, and incubated at 37° C. for 72 hours. The concentration of live cells was then determined using the MTT assay. In this experiment, the cell viability in the control group (without the compound treatment) was set to be 100%, and the cell viability (%) after the action of the compound and the half maximal growth inhibitory concentration of leukemia cells at 72 hours (IC50 value at 72 hours) were calculated.
as §2, with “well-grown lymphocytes” for “well-grown leukemia cells”

Assay [1] concerns RNA polymerase II (Pol II). In words: Immunoblot of Pol II level in THP-1 cells, 48 h. Type of assay: cell-based, human. The settings on record: 160 nM. How it is done: Well-grown leukemia cells were taken and seeded into wells of a 6-well cell culture plate, with a density of 1×10^6/ml. The medium was 1640 cell medium containing 10% fetal bovine serum. 14-D-Valine-TPL with different concentrations was added, and after being uniformly mixed, the plate was placed in a carbon dioxide (5% CO2) cell incubator, and incubated at 37° C. for 48 hours. Cellular proteins were then extracted, and the immunoblot technique was used to detect the expression levels of XPB and Pol II.
(In western blotting, separated proteins are transferred to a membrane and probed.)

A further assay concerns normal human blood cells. In words: MTT assay, normal human blood cells, 72 h. Type of assay: cell-based. The settings on record: Normal Blood Cell. How it is done:
Leukemia cell strains: Sup-B15 (Ph+acute lymphoblastic leukemia), CEM (acute lymphoblastic leukemia, ALL), and Molt-4 (acute lymphoblastic leukemia, ALL). Normal blood cell samples: peripheral blood from healthy volunteers. • Primary reagent: 14-D-Valine-TPL of the invention. Primary instruments: cell incubator and microplate reader. (2) Experimental Method
as §1

In assay [2] the test system is human leukemia cells (Jurkat, CEM, Molt-4, Sup-B15). In words: Therapeutic window over 4 types of human leukemia cells (MTT). Type of assay: cell-based. The following applies: for 4 different types of human leukemia cells. How it is done:
as §1

The next assay relates to KG-1. In words: MTT growth inhibition, KG-1 cells, 72 h. The settings on record: Homo sapiens, KG-1, MTT. Type of assay: cell-based. How it is done:
as §2

The next assay has as its system KG-1a. Briefly: MTT growth inhibition, KG-1a cells, 72 h. It counts as cell-based. The following applies: Homo sapiens. Here is the method: as §2

Molecules are shown by their SMILES. Where “and” joins values, the source holds several entries; their conditions need not be identical. Equal entries are not always repeated.

`CC(C)[C@@H](N)C(=O)O[C@@H]1[C@@]2(C(C)C)O[C@H]2[C@@H]2O[C@]23[C@]12O[C@H]2C[C@H]1C2=C(CC[C@@]13C)C(=O)OC2` [14-D-Valine-TPL, 14-Dextro-Valine-Triptolide]: the IC50 with CEM (Homo sapiens, CCRF-CEM, 72 h) is 25.5 nM; in the assay on normal human blood cells (Homo sapiens, 72 h, Overall, MTT), 201 nM; in the assay with normal human blood cells (Homo sapiens, 72 h, individual healthy volunteers No1-No9, MTT) it was 203 nM; in the assay with normal human blood cells (individual healthy volunteers No1-No9, MTT) it was 199 nM and 206 nM and 200 nM and 214 nM and 190 nM and 204 nM and 185 nM and 211 nM; in the assay on KG-1 it was 49 nM; in the assay with KG-1a, 31 nM. The compound further had a Therapeutic window with CEM (IC50 of normal blood cells/IC50 of CEM) of 7.89. Moreover, in assay [1], the “level of Pol II (immunoblot)” value is recorded as “significantly inhibited”. Further, in assay [2], the therapeutic window indices is on record as 5.54-18.58.
